Assay results as given in US11377451B2, “Compositions and methods for treating cancer” (The Regents of the University of California, priority 2019, dated 2022).

Experiments:
HK301 = test: GI50 assay (Cell Titer Glo proliferation, 3 days); format: cell-based, human; settings: Homo sapiens, 72 h; HK301, 3 days; read-out: HK301 GI50
GBM39 = test: GI50 assay (Cell Titer Glo proliferation, 3 days); format: cell-based, human; settings: Homo sapiens, 72 h; GBM39, 3 days

Compound | GI50 (HK301) | GI50 (GBM39)
N[C@@H](Cc1ccc(Nc2ncnc3cc4c(cc23)OCCO4)cc1)C(=O)O [JGK023] | 86.2 µM | 96.3 µM
CC(=O)N(c1cccc(Cl)c1F)c1ncnc2cc3c(cc12)OCCO3 [JGK0012] | 5.48 µM | 10.8 µM
Fc1c(Br)cccc1Nc1ncnc2cc3c(cc12)OCC(CN1CCOCC1)O3 (racemic) [JGK076, (±)-N-(3-Bromo-2-fluorophenyl)-8-[(morpholin-4-yl)methyl]-7,8-dihydro[1,4]dioxino[2,3-g]quinazolin-4-amine] | 6.16 µM | 16.9 µM
CN1CCN(CCC2COc3cc4c(Nc5cccc(Br)c5F)ncnc4cc3O2)CC1 (racemic) [JGK088, (±)-N-(3-Bromo-2-fluorophenyl)-8-[2-(4-methylpiperazin-1-yl)ethyl]-7,8-dihydro[1,4]dioxino[2,3-g]quinazolin-4-amine] | 2.13 µM | 4.06 µM
C[C@@H]1Oc2cc3c(Nc4cccc(Br)c4F)ncnc3cc2O[C@@H]1C (racemic) [JGK052, (±)-cis-N-(3-Bromo-2-fluorophenyl)-7,8-dimethyl-7,8-dihydro[1,4]dioxino[2,3-g]quinazolin-4-amine] | 3.87 µM | 9.22 µM
C#Cc1cccc(N(C(=O)OC(C)(C)C)C2=NC(OCC)N(C(=O)OC(C)(C)C)c3cc(OCCOC)c(OCCOC)cc32)c1 (centres unmarked) [JGK003] | 1.13 µM | 23.1 µM
Fc1ccc(Nc2ncnc3cc4c(cc23)OCCO4)c(F)c1Br [JGK057, N-(3-Bromo-2,4-difluorophenyl)-7,8-dihydro[1,4]dioxino[2,3-g]quinazolin-4-amine] | 1.38 µM | 9.36 µM
Fc1ccc(Nc2ncnc3cc4c(cc23)OCCO4)c(F)c1 [JGK025] | 10.7 µM | 27.7 µM
CN(C)C[C@H]1COc2cc3ncnc(Nc4cccc(Br)c4F)c3cc2O1 [JGK066S] | 0.301 µM | 2.63 µM
Fc1c(Br)cccc1Nc1ncnc2cc3c(cc12)OCC(CCN1CCOCC1)O3 (racemic) [JGK086, (±)-N-(3-Bromo-2-fluorophenyl)-8-[2-(morpholin-4-yl)ethyl]-7,8-dihydro[1,4]dioxino[2,3-g]quinazolin-4-amine] | 2.56 µM | 4.45 µM
COC(=O)[C@@H](Cc1ccc(Nc2ncnc3cc4c(cc23)OCCO4)cc1)NC(=O)OC(C)(C)C [JGK014] | 11.8 µM | 27.9 µM
COc1cc2ncnc(Nc3cccc(Cl)c3F)c2cc1OC(C)=O [JGK018] | 1.07 µM | 4.54 µM
COC(=O)[C@H](Cc1ccc(Nc2ncnc3cc4c(cc23)OCCO4)cc1)NC(=O)OC(C)(C)C [JGK015] | 2.15 µM | 11.5 µM
Fc1ccc(Br)c(F)c1Nc1ncnc2cc3c(cc12)OCCO3 [JGK056, N-(3-Bromo-2,6-difluorophenyl)-7,8-dihydro[1,4]dioxino[2,3-g]quinazolin-4-amine] | 0.419 µM | 1.36 µM
COC(=O)[C@H](Cc1ccc(NC(=O)COc2cc3c(Nc4cccc(Cl)c4F)ncnc3cc2OC)cc1)NC(=O)OC(C)(C)C [JGK024] | 156 µM | 125 µM
COC(=O)[C@H](Cc1ccc(Nc2ncnc3cc(O)c(O)cc23)cc1)NC(=O)OC(C)(C)C [JGK020] | 29.2 µM | 36.2 µM
Fc1c(Br)cccc1Nc1ncnc2cc3c(cc12)OC(CN1CCCC1)CO3 (racemic) [JGK067, (±)-N-(3-Bromo-2-fluorophenyl)-7-[(pyrrolidin-1-yl)methyl]-7,8-dihydro[1,4]dioxino[2,3-g]quinazolin-4-amine] | 0.898 µM | 2.2 µM
C=CC1COc2cc3ncnc(Nc4cccc(Br)c4F)c3cc2O1 (racemic) [JGK062, (±)-N-(3-Bromo-2-fluorophenyl)-7-ethenyl-7,8-dihydro[1,4]dioxino[2,3-g]quinazolin-4-amine] | 3.78 µM | 5.86 µM
Fc1c(Br)cccc1Nc1ncnc2c(F)c3c(cc12)OCCO3 [JGK071, N-(3-Bromo-2-fluorophenyl)-10-fluoro-7,8-dihydro[1,4]dioxino[2,3-g]quinazolin-4-amine] | 5.75 µM | 10.3 µM
